In patent US9278970B2, “Co-crystals of tadalafil and a hydroxy-substituted benzoic acid coformer as phosphodiesterase type 5 inhibitors” (Laboratorios Senosiain S.A. de C.V., priority 2012, dated 2016):

How the values were obtained:
[1] = in therapeutic concentrations; cited from earlier work
[2] = cited from earlier work
[3] = neutral form, D+ isomer (6R,12R); cited from earlier work
[4] = physicochemical stability of the new solid forms
Excerpt: Although there is good understanding of the physicochemistry of the cocrystal components, their elucidation a priori is almost impossible, as the interactions which determine the structure are relatively weak and the number of degrees of freedom for the optimization problem is immeasurable. For these reasons, the new solid forms disclosed herein are not obvious to a person skilled in the art. Further, the cocrystals and solvates of the present invention have shown physicochemical stability, allowing their use in pharmaceutical compositions. The present invention worked, among others, with the following coformers: aliphatic carboxylic acids, aromatic carboxylic acids, aromatic hydroxycarboxylic acids, aliphatic hydroxycarboxylic acids, aromatic heterocyclic amides, amino acid derivatives, polyphenols, alcohols such as xylitol and aromatic aminocarboxylic acids such as 3-aminobenzoic acid. A new solid form (NSF) which was stable with 3-hydroxybenzoic acid was found in the different assays of the present invention. The obtained NSF corresponds to a compound wherein the neutral coformer has a hydroxyl group and a carboxylic acid, and further contains a phenyl group as part of its structure.

| physicochemical stability of the solid form [4] | Structure (SMILES) | plasmatic tadalafil bonded to proteins [1] | eliminated in faeces, predominantly as metabolites ([2]; faeces) | eliminated in urine, predominantly as metabolites ([2]; urine) | solubility in water [3] |
| --- | --- | --- | --- | --- | --- |
| – | CN1CC(=O)N2[C@H](c3ccc4c(c3)OCO4)c3[nH]c4ccccc4c3C[C@@H]2C1=O [tadalafil] | 94% | approximately 61 % of the dose | approximately 36 % of the dose | almost insoluble in water |
| stable | CN1CC(=O)N2[C@H](c3ccc4c(c3)OCO4)c3[nH]c4ccccc4c3C[C@@H]2C1=O.O=C(O)c1cccc(O)c1 | – | – | – | – |
